Like-named read-outs stand apart in the source and are kept apart here.
Assays:
alveolar type II cells [1] = experiment: Surfactant secretion assay (secretion of 3H-labeled phospholipid by type II cells); format: cell-based, rat; conditions: for effect of re-adding calcium after overnight depletion on secretagogue-induced PL secretion: Ca2+ added back to 1.64 mM at start of the 2 hr secretion assay; for effect of calcium depletion on secretagogue-stimulated PL secretion: cells in Ca2+-free medium overnight and during the 2 h assay, ATP 500 μM, TG 10 μM, Io 1 μM, PMA 50 ng/ml, BAPTA-AM 25 μM; for effect of removing extracellular Ca2+ during the assay on secretagogue-elicited surfactant secretion: normal medium overnight, Ca2+-free medium for the 2 h assay, FIG. 4; for % PL secreted: BAPTA 25 μM, SP-A 100 ng/ml, alone or together, percentage of 3H-labeled phospholipid secreted, no additions 8.33
Method: Freshly isolated type II cells were prepared according to standard techniques, originally described by Dobbs (Dobbs, et al, AM. Rev. Respir. Dis. 134, 141-145, 1986), and later modified by Sen and Chander (Sen and Chander, Biochem. J. 298: 681-687, 1994). The use of these techniques has been previously reported. (Strayer, et al, Ex. Cell Res. 226: 90-97, 1996; Strayer, et al, Rec. Signal Transd. 7: 111-120, 1997). Briefly, lungs of anesthetized rats were cleared of blood and treated with elastase endotracheally (Worthington Biochemical, Freehold, N.J.) to obtain free cells. The cells were separated from lung debris and plated on bacteriological plates coated with normal rat IgG (Sigma Chemical Co., St. Louis, Mo.). After 1 hr, free cells were collected by panning, pelleted, and resuspended (0.8×10^6 cells/ml) in minimum essential medium (MEM)+10% fetal bovine serum (FCS, Life Technologies, Gaithersburg, Md.).
Secretion studies were performed as described by Sen and Chander. (Sen and Chander, Biochem. J. 298: 681-687, 1994). Briefly, 0.8×10^6 alveolar type II cells were cultured for 18 h in MEM with 10% FBS+0.5 μCi of [methyl-^3H]-choline (Amersham, Arlington Heights, Ill.) to label cellular phospholipids (PL) metabolically. Cells were washed to remove non-adherent cells and unincorporated radioactivity. After replacing this medium with fresh MEM, plates were incubated for 15 min. SP-A (100 ng/ml) was added to selected plates, followed by incubation for an additional 15 min.; secretagogues were then added at the appropriate concentrations [control (no addition), ATP (500 μM), TG (10 μM), ionomycin (1 μM), PMA (50 ng/ml)]. At this point (t=0) in each experiment, some samples were removed for analysis of secreted labeled lipids to establish a baseline. Incubation proceeded for an additional 2 h for all other plates. Following this incubation, media were removed and centrifuged (15 min., 300×g) to pellet cells that detached during incubation. These cells were later pooled with those recovered from the plates. Lipids from both media and plates were extracted (Sen and Chander, Biochem. J. 298: 681-687, 1994) after adding [methyl-^14C]-DPPC (Amersham, Arlington Heights, Ill.) as a recovery standard, and egg phosphatidylcholine (Sigma Chemical Co., St. Louis, Mo.) as a carrier lipid. Recovered lipids were dissolved in Scintiverse II fluid (Fisher Scientific, Pittsburgh, Pa.) and the radioactivity of these lipid extracts measured with a scintillation counter (Beckman Instruments, Fullerton, Calif.). ^3H-labeled phospholipid recovery was normalized to recovery of [methyl-^14C]-DPPC. Phospholipid secretion was determined as percent secretion=(cpm in lipids recovered from media×100)/(cpm in lipids recovered from media and plates).

[2] = tested on: [Ca^2+]l in type II cells; experiment: ER (lumenal) calcium concentration, fura2ff fluorescence with Mn2+ quench; format: cell-based, rat; conditions: fura2ff 340/380 nm ratio, Mn2+ added, FIG. 7
Method: Type II cells were prepared as described and plated on glass coverslips that had been pretreated with poly-L-lysine (Sigma, 0.01%, 20° C., 15 mins). After incubation overnight at 37° C. in MEM-10% FCS, the cells were washed three times with serum-free MEM and once with loading buffer (121 mM NaCl, 4.7 mM KCl, 1.2 mM KH2P04, 1.2 mM MgSO4, 2% BSA, 10 mM glucose, 20 mM HEPES, 2 mM CaCl2). The cells were loaded in loading buffer containing 10 μM Fura-2FF(AM) (Teflabs, Austin, Tex.) and 0.06% Pluronic Acid (Molecular Probes, Inc.) for two hours with shaking at 37° C. The coverslip was washed in calcium-free imaging buffer (121 mM NaCl, 4.7 mM KCl, 1.2 mM KH2PO4, 1.2 mM MgSO4, 10 mM glucose, 20 mM HEPES), inserted into a thermostatically regulated chamber (37° C.), and mounted on an inverted fluorescence microscope in 1 ml of imaging buffer. Fluorescence imaging following excitation at 340 nm and 380 nm was performed (supra).
During imaging MnCl2 was added at time=0 to a final concentration of 500 μM followed by either SP-A, ionomycin, or TG (final concentrations 100 ng/ml, 1 μM and 4 μM respectively).
Decreases in [Ca^2+]l, rather than increases in [Ca^2+]i, were hypothesized to be the critical regulator of surfactant secretion by all secretagogues, with the exception of PMA. This theory predicts that BAPTA-AM, and other calcium-dependent secretagogues, would decrease [Ca^2+]l, but that PMA would not. Thus, type II cells were loaded with fura2ff. This fluorophore has a much lower affinity for calcium in the μM range than fura2 does, and is therefore used to assess changes in [Ca^2+]l. Type II cells were also treated with Mn^2+, which binds cytoplasmic fura2ff and prevents its binding to Ca^2+. (Dorn, et al, Br. J. Pharmacol. 97: 163-170, 1989; Kuroki, et al, Biochem. J. 115: 115-119, 1991; Miyata, et al, Am. J. Physiol. 261: H1123-H1134, 1991). Any changes in the lumenal free calcium concentration were measured as changes in the ratio of fura2ff excitation at 340 nm to that at 380 nm. […] PMA had no effect.

[3] = read-out: affinity of BAPTA for calcium; cited from earlier work
alveolar type II cells [4] = experiment: Surfactant secretion assay (secretion of 3H-labeled phospholipid by type II cells); format: cell-based, rat; conditions: within 4 hours of treatment; control cells release about 7%
type II cells [5] = tested on: type II cells
Method: (§1) Viability of type II cells was tested both by trypan blue exclusion, and by tetrazolium/formazan assay (Promega Corp., Madison, Wis.), which measures mitochondrial dehydrogenases. These enzymes are only present in active form in living cells and are absent in nonviable cells. […] For such studies, an assay solution containing the tetrazolium compound (3-(4,5-dimethylthiazol-2-yl)-5-(3-carboxymethoxyphenyl)-2-(4-sulfonyl)-2H-tetrazolium, inner salt; MTS) and an electron-coupling reagent (phenazine methosulfate; PMS) in MEM is added to the cells. […] Correction was made for the small effect of BAPTA itself on this reaction by running a parallel assay on plates with no cells.
(§2) In these studies, cellular viability was determined in two ways. Viable cells enumerated by counting trypan blue-excluding cells. […] In addition, cellular viability in BAPTA-AM-treated cultures was measured using the tetrazolium/formazan assay for mitochondrial dehydrogenase.

[6] = tested on: [Ca^2+]i in type II cells; experiment: Cytosol free calcium concentration, fura2 digital imaging fluorescence microscopy; format: cell-based, rat; conditions: fura2 340/380 nm ratio, compared to mock-treated cells
Method: 10^6 freshly isolated type II cells were added to 35 mm tissue culture plates, each containing a polylysine (Sigma Chemical Co.) coated 25 mm diameter coverslip and incubated (37° C., 5% CO2) for at least 2 hr. Twenty min before use, Fura2/AM (Molecular Probes) was added (final concentration, 3 μM) to each coverslip. After Fura2 loading, the coverslips were washed with cell incubation buffer (121 mM NaCl, 4.7 mM KCl, 1.2 mM KH2PO4, 1.2 mM MgSO4, 2 mM CaCl2, 10 mM glucose, 5 mM NaHCO3, 0.2% BSA, and 10 mM HEPES/NaOH, pH 7.4) and inserted into a thermostatically regulated chamber (37° C.). Cell incubation buffer was added and the whole assembly placed on the stage of a Nikon Diaphot inverted microscope. At appropriate times (see infra), secretagogues in the appropriate concentration (see supra) were added. Fluorescence images of the cells were collected by exciting the cells alternately at 340 and 380 nm and measuring emission at 500 nm using a charge-coupled device camera (Photometrics, Inc.) as described previously. (Rooney, et al, Biol. Chem 264: 17131-17141, 1989). Image acquisition and analysis were done with Macintosh computers running customized image-processing software. The ratio (340/380) of Fura2 excitation was calibrated to [Ca^2+]i as described. (Rooney, et al, Biol. Chem 264: 17131-17141, 1989; Grynkiewicz, et al, J. Biol. Chem. 260: 3440-3450, 1985).

type II cells [7] = tested on: type II cells; remark: listed apart in the source
Method: as §1, §2

type II cells [8] = experiment: Type II cell viability by trypan blue exclusion; conditions: at the concentrations of FIG. 2; compared to each other and to untreated type II cells
Method: as §1, §2

Compound | effect of re-adding calcium after overnight depletion on secretagogue-induced PL secretion (alveolar type II cells [1]) | effect of calcium depletion on secretagogue-stimulated PL secretion (alveolar type II cells [1]) | effect of removing extracellular Ca2+ during the assay on secretagogue-elicited surfactant secretion (alveolar type II cells [1]) | effect on lumenal free calcium concentration [Ca^2+]l [2] | further results
C[C@H](CCC(=O)O)C[C@H](C)C[C@H](C)C(=O)/C=C(\O)[C@H](C)C[C@H](C)C/C=C/[C@@H](C)[C@@H](O)[C@@H](C)[C@@H](O)C[C@@H]1CC[C@@](C)([C@H]2CC[C@@](C)([C@@H](C)O)O2)O1 [Io, ionomycin] | restored | prevented | not significantly altered | decreased [Ca^2+]l | 
C/C=C(/C)C(=O)O[C@H]1C(C)=C2[C@H]([C@@H]1OC(=O)CCCCCCC)[C@@](C)(OC(C)=O)C[C@H](OC(=O)CCC)[C@@]1(O)[C@H]2OC(=O)[C@@]1(C)O [TG, thapsigargin] | restored | partially inhibited | Statistically significant but small decreases |  | 
O=C(O)CN(CC(=O)O)c1ccccc1OCCOc1ccccc1N(CC(=O)O)CC(=O)O [BAPTA, 1,2-bis(2-aminophenoxy)ethane-N,N,N, N-tetraacetic acid] | restored | prevented BAPTA secretagogue activity | not significantly altered | decreased [Ca^2+]l | surfactant secretion at 5 μM BAPTA (alveolar type II cells [1]; dose-response studies, concentration range of 5 μM): below the threshold; concentrations at which BAPTA stimulates surfactant secretion (powerful secretagogue) (alveolar type II cells [1]; dose-response, FIG. 2): 25 to 100 µM; Kd [3]: 160 nM
surfactant-associated protein-A [SP-A] |  |  |  | increased [Ca^2+]l | % PL secreted (alveolar type II cells [1]): 4.98%; BAPTA-induced surfactant secretion after SP-A pretreatment (alveolar type II cells [1]; SP-A pretreatment, then BAPTA-AM loading concentration 25 μM, versus cells not exposed to SP-A): significantly less surfactant secretion
Nc1ncnc2c1ncn2[C@@H]1O[C@H](COP(=O)(O)OP(=O)(O)OP(=O)(O)O)[C@@H](O)[C@H]1O [ATP] |  | prevented |  |  | 
CC(=O)OCOC(=O)CN(CC(=O)OCOC(C)=O)c1ccccc1OCCOc1ccccc1N(CC(=O)OCOC(C)=O)CC(=O)OCOC(C)=O [BAPTA-AM, 1,2-bis(2-aminophenoxy)ethane-N,N,N, N-tetraacetic acid acetoxymethyl ester] |  |  |  |  | stored surfactant released (alveolar type II cells [4]): about ⅔; effect on cell viability (trypan blue-excluding cells) (type II cells [5]): Neither BAPTA-AM nor TPEN at these concentrations had any effect on cell viability; effect on cytosol free calcium concentration [Ca^2+]i [6]: caused [Ca^2+]i to decrease somewhat; % PL secreted (alveolar type II cells [1]): 15.47%; viability of treated type II cells (tetrazolium/formazan) (type II cells [7]): does not differ from that of control cells
CCCCCCCCCCCCCC(=O)O[C@@H]1[C@@H](C)[C@@]2(O)[C@@H](C=C(CO)C[C@]3(O)C(=O)C(C)=C[C@@H]23)[C@@H]2C(C)(C)[C@]12OC(C)=O [PMA, phorbol 12-myristate 13-acetate] | increased PMA-induced secretion, but this effect was not statistically significant | did not alter | Statistically significant but small decreases | no effect | effect on cytosol free calcium concentration [Ca^2+]i [6]: did not alter [Ca^2+]i
c1ccc(CN(CCN(Cc2ccccn2)Cc2ccccn2)Cc2ccccn2)nc1 [TPEN, N,N,N′,N′-tetrakis-(2-pyridylmethyl) ethylenediamine] |  |  |  |  | effect on cell viability (trypan blue-excluding cells) (type II cells [8]): Neither BAPTA-AM nor TPEN at these concentrations had any effect on cell viability; secretagogue activity (alveolar type II cells [1]; TPEN up to 150 μM, FIG. 2): no secretagogue activity
